Here are results for 7 compounds from ChEMBL document CHEMBL3132769, “Fragment growing to retain or alter the selectivity of anchored kinase hinge-binding fragments” (Medchemcomm, 2014).

The target of experiment [1] is Protein kinase C eta type (Homo sapiens) (UniProt P24723). Nature of the experiment: Inhibition of human truncated PKC eta expressed in baculovirus assessed as substrate phosphorylation using fluorescence-labelled peptides as substrate at 420 uM after 90 mins by microfluidic peptide phosphorylation assay.
Experiment [2] concerns the target Serine/threonine-protein kinase pim-1 (Homo sapiens) (UniProt P11309). Nature of the experiment: Inhibition of human full length PIM1 expressed in baculovirus assessed as substrate phosphorylation using fluorescence-labelled peptides as substrate at 0.1 uM after 90 mins by microfluidic peptide phosphorylation assay.
The target in experiment [3] is Protein kinase C eta type (Homo sapiens) (UniProt P24723). Nature of the experiment: Inhibition of human truncated PKC eta expressed in baculovirus assessed as substrate phosphorylation using fluorescence-labelled peptides as substrate at 0.06 uM after 90 mins by microfluidic peptide phosphorylation assay.
Experiment [4] deals with Mitogen-activated protein kinase kinase kinase kinase 4 (Homo sapiens) (UniProt O95819). Nature of the experiment: Inhibition of human HGK catalytic domain expressed in baculovirus assessed as substrate phosphorylation using fluorescence-labelled peptides as substrate at 0.06 uM after 90 mins by microfluidic peptide phosphorylation assay.
Experiment [5] has as its target Mitogen-activated protein kinase 3 (Homo sapiens) (UniProt P27361). Nature of the experiment: Inhibition of human full length ERK1 expressed in Escherichia coli cell assessed as substrate phosphorylation using fluorescence-labelled peptides as substrate at 0.2 uM after 90 mins by microfluidic peptide phosphorylation assay.
In experiment [6] the target is T1, Serine/threonine-protein kinase Sgk3 (Homo sapiens) (UniProt Q96BR1).
T1 sequence (whole entry): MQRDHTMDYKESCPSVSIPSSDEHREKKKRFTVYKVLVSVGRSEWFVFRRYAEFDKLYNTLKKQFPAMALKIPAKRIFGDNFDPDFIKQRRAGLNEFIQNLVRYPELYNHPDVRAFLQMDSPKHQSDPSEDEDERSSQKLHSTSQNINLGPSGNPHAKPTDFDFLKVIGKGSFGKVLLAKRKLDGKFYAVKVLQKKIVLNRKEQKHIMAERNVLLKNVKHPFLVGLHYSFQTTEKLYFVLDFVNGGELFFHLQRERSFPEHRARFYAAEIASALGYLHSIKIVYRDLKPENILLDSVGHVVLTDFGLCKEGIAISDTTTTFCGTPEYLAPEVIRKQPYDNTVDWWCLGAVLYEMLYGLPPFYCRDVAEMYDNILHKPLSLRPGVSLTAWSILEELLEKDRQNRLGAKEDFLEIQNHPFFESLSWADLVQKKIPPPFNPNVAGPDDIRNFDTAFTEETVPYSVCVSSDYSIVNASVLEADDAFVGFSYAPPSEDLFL
Nature of the experiment: Inhibition of human full length SGK3 expressed in baculovirus assessed as substrate phosphorylation using fluorescence-labelled peptides as substrate at 0.2 uM after 90 mins by microfluidic peptide phosphorylation assay.

For experiment [7], the target named is Rho-associated protein kinase 2 (Homo sapiens) (UniProt O75116). Nature of the experiment: Inhibition of human ROCK2 catalytic domain expressed in baculovirus assessed as substrate phosphorylation using fluorescence-labelled peptides as substrate at 2 uM after 90 mins by microfluidic peptide phosphorylation assay.
Experiment [8] concerns T2, Receptor-type tyrosine-protein kinase FLT3 (Homo sapiens), P36888 [D835Y].
T2 sequence (whole entry): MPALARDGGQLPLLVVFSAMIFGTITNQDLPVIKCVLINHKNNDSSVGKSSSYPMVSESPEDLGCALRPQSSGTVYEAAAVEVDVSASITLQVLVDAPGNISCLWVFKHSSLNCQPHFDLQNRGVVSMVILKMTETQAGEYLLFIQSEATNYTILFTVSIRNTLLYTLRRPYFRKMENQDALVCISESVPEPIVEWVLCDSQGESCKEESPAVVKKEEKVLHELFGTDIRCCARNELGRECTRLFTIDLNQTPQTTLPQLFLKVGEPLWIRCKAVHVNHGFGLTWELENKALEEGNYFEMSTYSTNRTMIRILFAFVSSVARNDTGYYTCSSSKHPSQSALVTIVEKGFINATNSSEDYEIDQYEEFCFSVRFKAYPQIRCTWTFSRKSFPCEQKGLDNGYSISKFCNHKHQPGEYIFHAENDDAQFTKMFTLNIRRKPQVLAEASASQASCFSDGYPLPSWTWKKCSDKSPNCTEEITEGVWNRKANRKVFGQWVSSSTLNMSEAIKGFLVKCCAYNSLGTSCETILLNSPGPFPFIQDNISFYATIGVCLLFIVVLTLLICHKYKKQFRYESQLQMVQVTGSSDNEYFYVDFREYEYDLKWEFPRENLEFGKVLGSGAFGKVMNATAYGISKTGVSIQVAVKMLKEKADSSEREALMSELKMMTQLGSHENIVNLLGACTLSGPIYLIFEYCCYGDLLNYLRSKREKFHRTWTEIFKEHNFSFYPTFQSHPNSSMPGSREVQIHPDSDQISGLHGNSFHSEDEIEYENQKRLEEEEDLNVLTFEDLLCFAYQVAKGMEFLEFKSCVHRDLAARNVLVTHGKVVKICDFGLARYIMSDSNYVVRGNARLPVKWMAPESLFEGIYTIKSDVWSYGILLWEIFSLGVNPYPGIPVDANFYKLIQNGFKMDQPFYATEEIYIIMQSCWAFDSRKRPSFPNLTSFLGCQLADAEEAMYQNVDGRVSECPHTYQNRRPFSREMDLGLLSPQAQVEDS
Nature of the experiment: Inhibition of human FLT3 D835Y mutant catalytic domain expressed in baculovirus assessed as substrate phosphorylation using fluorescence-labelled peptides as substrate at 95 uM after 90 mins by microfluidic peptide phosphorylation assay.

Experiment [9] deals with Casein kinase I isoform delta (Homo sapiens) (UniProt P48730). Nature of the experiment: Inhibition of human CK1D catalytic domain expressed in Escherichia coli cell assessed as substrate phosphorylation using fluorescence-labelled peptides as substrate at 1000 uM after 90 mins by microfluidic peptide phosphorylation assay.

In general, inhibition refers to the relative decrease from the control value, in per cent.

Chain of Protein kinase C eta type (Homo sapiens) (P24723 whole entry, the tested form may be a part): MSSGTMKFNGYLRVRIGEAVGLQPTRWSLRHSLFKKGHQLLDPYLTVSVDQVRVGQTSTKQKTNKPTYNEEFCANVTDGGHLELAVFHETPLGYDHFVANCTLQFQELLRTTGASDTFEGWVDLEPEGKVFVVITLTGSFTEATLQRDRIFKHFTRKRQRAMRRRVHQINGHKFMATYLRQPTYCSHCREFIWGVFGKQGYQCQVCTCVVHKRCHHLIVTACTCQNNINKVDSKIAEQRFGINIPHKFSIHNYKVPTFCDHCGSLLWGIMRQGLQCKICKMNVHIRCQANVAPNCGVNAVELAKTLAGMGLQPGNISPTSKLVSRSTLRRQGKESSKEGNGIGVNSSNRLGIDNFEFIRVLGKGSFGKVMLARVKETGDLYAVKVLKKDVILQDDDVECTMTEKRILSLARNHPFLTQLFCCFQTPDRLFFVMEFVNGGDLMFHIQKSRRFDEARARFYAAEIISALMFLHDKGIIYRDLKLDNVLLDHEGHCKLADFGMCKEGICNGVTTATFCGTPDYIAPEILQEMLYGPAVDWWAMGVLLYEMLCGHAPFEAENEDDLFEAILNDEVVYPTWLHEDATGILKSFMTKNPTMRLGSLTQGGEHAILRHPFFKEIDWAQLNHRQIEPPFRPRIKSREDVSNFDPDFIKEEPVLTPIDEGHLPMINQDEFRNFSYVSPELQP
Chain of Casein kinase I isoform delta (Homo sapiens) (P48730 whole entry, looked up, the tested form may be a part, canonical isoform): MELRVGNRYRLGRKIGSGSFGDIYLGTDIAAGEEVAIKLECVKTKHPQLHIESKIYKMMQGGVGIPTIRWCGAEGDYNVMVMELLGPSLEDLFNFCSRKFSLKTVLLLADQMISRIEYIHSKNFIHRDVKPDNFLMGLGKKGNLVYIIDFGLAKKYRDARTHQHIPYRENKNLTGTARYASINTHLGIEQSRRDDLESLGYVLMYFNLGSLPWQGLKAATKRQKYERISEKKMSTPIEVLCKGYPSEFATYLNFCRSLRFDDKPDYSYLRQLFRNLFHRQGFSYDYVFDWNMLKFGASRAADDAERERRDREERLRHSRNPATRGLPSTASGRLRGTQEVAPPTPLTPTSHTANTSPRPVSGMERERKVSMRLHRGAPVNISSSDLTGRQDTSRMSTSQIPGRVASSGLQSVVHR
Chain of Rho-associated protein kinase 2 (Homo sapiens) (O75116 whole entry, looked up, the tested form may be a part): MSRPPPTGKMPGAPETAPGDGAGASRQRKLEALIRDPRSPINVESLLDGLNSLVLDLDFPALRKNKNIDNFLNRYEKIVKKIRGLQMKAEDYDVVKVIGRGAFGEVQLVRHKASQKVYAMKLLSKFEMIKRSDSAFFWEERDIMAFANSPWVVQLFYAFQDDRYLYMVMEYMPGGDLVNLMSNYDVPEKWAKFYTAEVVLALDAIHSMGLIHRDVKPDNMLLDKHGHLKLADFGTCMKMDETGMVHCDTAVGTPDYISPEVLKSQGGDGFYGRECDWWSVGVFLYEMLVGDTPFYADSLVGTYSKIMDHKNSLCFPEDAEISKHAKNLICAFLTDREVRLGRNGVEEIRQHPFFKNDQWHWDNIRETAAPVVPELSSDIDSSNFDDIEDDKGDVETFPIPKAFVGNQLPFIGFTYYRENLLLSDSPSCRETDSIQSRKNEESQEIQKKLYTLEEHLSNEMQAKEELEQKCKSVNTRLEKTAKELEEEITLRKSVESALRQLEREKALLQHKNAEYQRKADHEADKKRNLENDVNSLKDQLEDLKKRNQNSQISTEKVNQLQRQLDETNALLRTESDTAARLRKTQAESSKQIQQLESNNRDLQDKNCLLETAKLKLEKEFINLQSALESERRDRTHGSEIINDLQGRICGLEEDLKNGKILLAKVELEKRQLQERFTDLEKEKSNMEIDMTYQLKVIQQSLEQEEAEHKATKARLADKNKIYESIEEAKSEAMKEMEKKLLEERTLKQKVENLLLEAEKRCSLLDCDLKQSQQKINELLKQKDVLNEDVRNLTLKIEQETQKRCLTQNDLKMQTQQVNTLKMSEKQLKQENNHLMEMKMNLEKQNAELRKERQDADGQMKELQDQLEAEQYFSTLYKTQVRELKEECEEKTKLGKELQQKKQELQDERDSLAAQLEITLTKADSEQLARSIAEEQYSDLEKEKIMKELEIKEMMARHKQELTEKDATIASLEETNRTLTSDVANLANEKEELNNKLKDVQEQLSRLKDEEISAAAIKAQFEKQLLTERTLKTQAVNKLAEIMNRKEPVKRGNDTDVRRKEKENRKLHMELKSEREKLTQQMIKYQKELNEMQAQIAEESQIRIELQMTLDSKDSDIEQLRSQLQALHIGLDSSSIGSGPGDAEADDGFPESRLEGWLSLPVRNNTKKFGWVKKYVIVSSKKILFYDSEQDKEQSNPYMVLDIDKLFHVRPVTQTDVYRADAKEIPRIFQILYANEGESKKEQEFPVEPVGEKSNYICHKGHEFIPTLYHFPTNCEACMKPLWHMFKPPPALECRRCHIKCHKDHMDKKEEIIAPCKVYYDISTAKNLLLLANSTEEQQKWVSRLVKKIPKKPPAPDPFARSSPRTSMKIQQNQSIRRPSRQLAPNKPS
Chain of Serine/threonine-protein kinase pim-1 (Homo sapiens) (P11309 whole entry, looked up, the tested form may be a part): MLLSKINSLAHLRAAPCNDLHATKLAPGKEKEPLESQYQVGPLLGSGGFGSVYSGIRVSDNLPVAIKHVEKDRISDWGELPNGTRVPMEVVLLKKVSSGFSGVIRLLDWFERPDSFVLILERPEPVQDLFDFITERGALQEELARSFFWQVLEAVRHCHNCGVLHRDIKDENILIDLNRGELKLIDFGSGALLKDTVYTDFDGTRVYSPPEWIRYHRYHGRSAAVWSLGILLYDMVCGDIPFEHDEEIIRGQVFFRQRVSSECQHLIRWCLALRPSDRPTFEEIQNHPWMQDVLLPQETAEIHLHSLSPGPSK
Chain of Mitogen-activated protein kinase kinase kinase kinase 4 (Homo sapiens) (O95819 2-1239 limits assumed): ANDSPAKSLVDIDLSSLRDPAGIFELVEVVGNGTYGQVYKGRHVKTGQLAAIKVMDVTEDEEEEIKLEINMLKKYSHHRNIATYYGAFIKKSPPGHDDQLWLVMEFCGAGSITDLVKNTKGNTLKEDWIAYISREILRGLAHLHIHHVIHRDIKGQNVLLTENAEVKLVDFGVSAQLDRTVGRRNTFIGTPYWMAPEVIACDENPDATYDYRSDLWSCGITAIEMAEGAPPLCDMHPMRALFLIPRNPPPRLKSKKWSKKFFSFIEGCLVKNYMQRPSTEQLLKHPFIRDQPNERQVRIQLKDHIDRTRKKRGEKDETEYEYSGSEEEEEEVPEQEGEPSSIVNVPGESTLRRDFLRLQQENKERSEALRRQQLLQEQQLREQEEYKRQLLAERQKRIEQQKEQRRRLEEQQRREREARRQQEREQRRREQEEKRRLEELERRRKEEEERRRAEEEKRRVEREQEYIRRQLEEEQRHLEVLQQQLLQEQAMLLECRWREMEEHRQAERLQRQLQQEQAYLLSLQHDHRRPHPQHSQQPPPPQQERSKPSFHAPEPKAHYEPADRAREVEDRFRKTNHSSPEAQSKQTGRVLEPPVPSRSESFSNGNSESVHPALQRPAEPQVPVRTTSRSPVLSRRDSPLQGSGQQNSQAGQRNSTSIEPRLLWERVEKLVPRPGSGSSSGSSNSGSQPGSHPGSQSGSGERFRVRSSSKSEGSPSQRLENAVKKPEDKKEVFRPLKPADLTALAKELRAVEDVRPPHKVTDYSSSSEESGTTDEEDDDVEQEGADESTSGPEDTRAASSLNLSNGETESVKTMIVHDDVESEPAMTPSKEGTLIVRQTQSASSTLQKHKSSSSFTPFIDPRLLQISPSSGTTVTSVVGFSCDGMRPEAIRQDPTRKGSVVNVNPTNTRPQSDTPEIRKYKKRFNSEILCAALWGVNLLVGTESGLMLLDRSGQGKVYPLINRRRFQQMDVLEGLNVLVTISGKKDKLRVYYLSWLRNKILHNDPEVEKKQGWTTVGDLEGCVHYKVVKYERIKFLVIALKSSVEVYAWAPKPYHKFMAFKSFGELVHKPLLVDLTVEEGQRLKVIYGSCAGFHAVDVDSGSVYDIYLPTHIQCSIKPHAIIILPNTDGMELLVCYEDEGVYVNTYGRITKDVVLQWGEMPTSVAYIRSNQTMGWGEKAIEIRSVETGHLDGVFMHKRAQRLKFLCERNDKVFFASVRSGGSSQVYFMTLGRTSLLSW
Chain of Mitogen-activated protein kinase 3 (Homo sapiens) (P27361 whole entry): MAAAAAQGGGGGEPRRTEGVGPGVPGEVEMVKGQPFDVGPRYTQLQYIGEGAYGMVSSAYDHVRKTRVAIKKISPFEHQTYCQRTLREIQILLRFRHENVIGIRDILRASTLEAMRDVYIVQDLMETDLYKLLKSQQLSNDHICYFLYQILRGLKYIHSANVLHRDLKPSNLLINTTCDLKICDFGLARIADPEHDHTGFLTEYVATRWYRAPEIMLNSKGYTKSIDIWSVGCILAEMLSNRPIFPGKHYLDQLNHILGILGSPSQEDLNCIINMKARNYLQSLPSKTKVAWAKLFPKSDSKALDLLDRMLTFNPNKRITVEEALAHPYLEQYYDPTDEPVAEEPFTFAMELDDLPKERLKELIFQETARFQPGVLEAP

Regarding `c1nc(N2CCOCC2)c2nc[nH]c2n1`, the inhibition in [1] turned out to be 82%.
With `C[C@H](CN(C)C)Oc1nc(Nc2cc3cccc(Cl)c3cn2)cnc1C#N`, the inhibition in [2] amounted to 9.5%.
As for `NC1(Cc2ccc(Cl)cc2)CCN(c2ncnc3[nH]ccc23)CC1`, the inhibition in experiment [3] was found to be 51%; in experiment [4] it was 1%.
As for `Clc1ccc(C2(c3ccc(-c4ncnc5[nH]cnc45)cc3)CCNCC2)cc1`, the inhibition was determined as 6% in [5] and 41% in [6].
Take `NC1CCN(c2ncnc3[nH]ccc23)CC1`: in experiment [7], the inhibition was found to be 44%.
On to `NCCc1ccc(-c2ncnc3[nH]cnc23)cc1`, for which the inhibition in experiment [8] came to 86%.
With `c1cnc2[nH]ccc2c1`, the inhibition in experiment [9] amounted to 94.5%.
